In the CheMixHub ionic liquid set:

Experiment: xn = mol fraction of the nth substance listed

COCCOCCOC + CCCC[n+]1ccn(C)c1.O=S(=O)([N-]S(=O)(=O)C(F)(F)F)C(F)(F)F
Conditions	electrical conductivity [S/m]
294.5 K, 100 kPa, x2 = 0.03433	0.44

Cn1cc[n+](C)c1.[Cl-] + O
viscosity [mPa·s], 100 kPa
Conditions	x1 = 8.631e-05	x1 = 0.0002029	x1 = 0.0003509	x1 = 0.0005369	x1 = 0.0007226	x1 = 0.0008926	x1 = 0.001063	x1 = 0.001349	x1 = 0.001718
278.15 K	1.521	1.526	1.529	1.533	1.536	1.538	1.544	1.548	1.553
283.15 K	1.307	1.311	1.313	1.317	1.32	1.323	1.327	1.33	1.334
288.15 K	1.141	1.143	1.145	1.148	1.15	1.152	1.155	1.159	1.164
293.15 K	1.006	1.007	1.009	1.012	1.014	1.016	1.018	1.022	1.026
298.15 K	0.893	0.895	0.897	0.899	0.901	0.903	0.906	0.908	0.912
303.15 K	0.802	0.803	0.804	0.805	0.806	0.808	0.811	0.813	0.817
308.15 K	0.721	0.723	0.724	0.727	0.728	0.73	0.732	0.734	0.737
313.15 K	0.654	0.655	0.657	0.659	0.66	0.662	0.664	0.666	0.669

CCC(C)O (configuration not stated) + CC[n+]1ccn(C)c1.N#C[N-]C#N
100 kPa, x2 = 0
Conditions	viscosity [mPa·s]
298.15 K	3.01
303.15 K	2.55
308.15 K	2.21
313.15 K	1.97
318.15 K	1.79
323.15 K	1.63

CCCCCCCC[N+](C)(CCCCCCCC)CCCCCCCC.[Br-] + CCCCCCCCCC(=O)O
100 kPa, x1 = 0.3333
Conditions	viscosity [mPa·s]
293 K	810
298 K	570
303 K	410
308 K	310
333 K	84

NC(N)=NCCC[C@H](N)C(=O)O + CCCC[n+]1ccn(C)c1.[Br-] + O
viscosity [mPa·s], 101.3 kPa
Conditions	293.15 K	298.15 K	303.15 K	308.15 K	313.15 K
x1 = 0.000359, x2 = 0	1.013	0.904	0.839	0.771	0.691
x1 = 0.0003655, x2 = 0.00072	1.037	0.922	0.833	0.754	0.688
x1 = 0.0003655, x2 = 0.001439	1.058	0.914	0.816	0.744	0.675
x1 = 0.0007208, x2 = 0	1.025	0.915	0.851	0.783	0.703
x1 = 0.0007266, x2 = 0.0007198	1.048	0.933	0.844	0.766	0.7
x1 = 0.0007324, x2 = 0.001438	1.069	0.925	0.827	0.756	0.686
x1 = 0.001079, x2 = 0	1.036	0.927	0.863	0.795	0.715
x1 = 0.001088, x2 = 0.0007195	1.059	0.944	0.855	0.777	0.712
x1 = 0.001098, x2 = 0.001438	1.08	0.936	0.838	0.767	0.698
x1 = 0.001446, x2 = 0	1.047	0.938	0.874	0.806	0.726
x1 = 0.001452, x2 = 0.0007192	1.07	0.955	0.866	0.788	0.723
x1 = 0.001462, x2 = 0.001437	1.091	0.947	0.849	0.778	0.709
x1 = 0.001811, x2 = 0.000719	1.081	0.966	0.877	0.799	0.734
x1 = 0.00182, x2 = 0	1.059	0.949	0.885	0.817	0.737
x1 = 0.001827, x2 = 0.001437	1.102	0.958	0.86	0.789	0.72
x1 = 0.002121, x2 = 0.001436	1.114	0.97	0.872	0.801	0.732
x1 = 0.002158, x2 = 0	1.073	0.961	0.897	0.829	0.749
x1 = 0.002174, x2 = 0.0007187	1.093	0.978	0.889	0.811	0.746
x1 = 0.002516, x2 = 0	1.087	0.975	0.911	0.843	0.763
x1 = 0.002537, x2 = 0.0007185	1.106	0.991	0.902	0.824	0.759
x1 = 0.002557, x2 = 0.001436	1.127	0.983	0.885	0.814	0.745

CCCCCCCCCn1cc[n+](C)c1.O=S(=O)([N-]S(=O)(=O)C(F)(F)F)C(F)(F)F + O
100 kPa, x2 = 0.1736
Conditions	viscosity [mPa·s]
298.15 K	72.66
308.15 K	46.59
318.15 K	31.72
323.15 K	26.65
358.15 K	10.15
363.15 K	9.09

CCC(C)O (configuration not stated) + CC[n+]1ccn(C)c1.O=S(=O)([O-])C(F)(F)F
Conditions	viscosity [mPa·s]
308.15 K, 101 kPa, x2 = 0	2

CCCCCC[n+]1ccn(C)c1.[Cl-] + CN1CCCC1=O
100 kPa
Conditions	viscosity [mPa·s]
293.15 K, x2 = 0.4223	288
298.15 K, x2 = 0.2211	1042
298.15 K, x2 = 0.3181	467
298.15 K, x2 = 0.5271	92.7
298.15 K, x2 = 0.718	19.13
298.15 K, x2 = 0.8139	8.49
303.15 K, x2 = 0.4223	152
308.15 K, x2 = 0.2211	481
308.15 K, x2 = 0.718	13.69
308.15 K, x2 = 0.8139	6.46
313.15 K, x2 = 0.6327	21.54
313.15 K, x2 = 0.718	11.59
313.15 K, x2 = 0.9083	2.78
323.15 K, x2 = 0.3181	102.2
323.15 K, x2 = 0.4223	54.5
328.15 K, x2 = 0.4223	44.4
328.15 K, x2 = 0.718	7.66
333.15 K, x2 = 0.9083	2.041

[Cl][Zn][Cl] + CCCC[n+]1ccn(C)c1.[Cl-]
303.15 K, 100 kPa
Conditions	electrical conductivity [S/m]
x2 = 0.333	0.00188
x2 = 0.5	0.0237
x2 = 0.666	0.0171
